In assay [1] the test system is endogenous NAMPT in U2OS cells. Description: Cellular NAD+ modulation assay (NAD/NADH-Glo, U2OS cells). As to conditions: Homo sapiens; for maximal fold induction: read-out: Cellular Emax. The format is cell-based. The method, boiled down: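 Endogenous NAMPT stimulation in U2OS cells treated with compound dilution series for 24 h at 37 °C. Cells lysed with DTAB base, acid-treated 15 min at 60 °C, neutralized, NAD+ read by NAD/NADH-Glo luminescence after 40 min at room temperature. EC50 and Emax (fold over DMSO) derived.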

For assay [2], the target named is T1, human enzyme NAMPT (full length) (Homo sapiens, UniProt P43490).
T1 construct: human enzyme NAMPT (full length)
Description: NMN fluorescence biochemical assay (stimulation of NMN synthesis by NAMPT). As to conditions: for EC50: concentration giving half-maximal activation, read-out: Enzymatic EC50; for Enzymatic Emax: fold change of maximal activation compared to DMSO. An outline of the steps:
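Full-length human NAMPT (100 nM) was preincubated 15 min at 37 °C with compound in 50 mM Tris-HCl pH 7.5, 10 mM MgCl2, 2 mM DTT, then reacted 1 h at 37 °C with 50 μM NAM, 100 μM PRPP, 4 mM ATP (stated solution concentrations). NMN was derivatised with acetophenone/KOH then formic acid and read at Ex/Em 382/445 nm; EC50 and Emax (fold over DMSO) reported.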

The mark [3] stands for this setting: 24 hours incubation with compound.
[4] abbreviates: NMN synthesis by purified human NAMPT (100 nM).
Setting [5] is: 24 hours incubation, cellular NAD+.
The mark [6] stands for this setting: NMN fluorescence assay, purified human NAMPT 100 nM.

The structures appear in SMILES notation. Like-named read-outs stand apart in the source and are kept apart here. Bounds are passed on as bounds.

T1 sequence (P43490 whole entry): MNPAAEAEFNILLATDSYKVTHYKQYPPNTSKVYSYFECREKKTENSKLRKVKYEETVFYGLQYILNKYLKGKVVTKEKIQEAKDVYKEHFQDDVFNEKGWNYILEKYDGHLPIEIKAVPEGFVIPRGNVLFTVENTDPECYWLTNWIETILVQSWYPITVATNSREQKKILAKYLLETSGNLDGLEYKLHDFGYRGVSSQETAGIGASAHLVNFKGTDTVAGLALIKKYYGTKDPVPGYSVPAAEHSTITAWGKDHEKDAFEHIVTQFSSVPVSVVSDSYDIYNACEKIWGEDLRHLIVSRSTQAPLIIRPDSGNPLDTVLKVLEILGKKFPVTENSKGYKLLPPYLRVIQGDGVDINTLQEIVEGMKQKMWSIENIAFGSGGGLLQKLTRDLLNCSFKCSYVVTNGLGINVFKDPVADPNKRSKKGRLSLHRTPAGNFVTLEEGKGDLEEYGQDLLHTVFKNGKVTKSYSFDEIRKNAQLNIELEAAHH

Broadly, the EC50 is the concentration at which the effect is half-maximal. As to `O=C1c2ccccc2C(c2ccccc2)N1Cc1ccc2[nH]c(=O)oc2c1` (stereo not shown) [Compound 67, 6-((1-oxo-3-phenylisoindolin-2-yl)methyl)benzo[d]oxazol-2(3H)-one], in assay [1] (setting [3]), the EC50 was 5000 to 50000 nM and the maximal fold induction lay in the range of 1.2 to 1.5. Moreover, the concentration giving a half-maximal response (EC50) in assay [2] (setting [4]) was no less than 5000 nM. Moreover, the “Enzymatic Emax” value in assay [2] is listed as “B (3≥B>2)”.

With `O=C1c2ccc(CN3CCOCC3)cc2C(Cc2ccccc2)N1Cc1ccc2[nH]c(=O)oc2c1` (stereo not shown) [Compound 123, 6-((3-benzyl-5-(morpholinomethyl)-1-oxoisoindolin-2-yl)methyl)benzo[d]oxazol-2(3H)-one], in assay [1] (setting [3]), the EC50 lay in the range of 500 to 5000 nM and the maximal fold induction was greater than 1.5. Besides, in assay [2] (setting [4]), the EC50 lay within 500 to 5000 nM. For the same compound, the “Enzymatic Emax” value in assay [2] was “A (A>3)”.

Regarding `O=C1c2ccc(Br)cc2CN1Cc1ccc2[nH]c(=O)oc2c1` [Compound 299, 6-((5-bromo-1-oxoisoindolin-2-yl)methyl)benzo[d]oxazol-2(3H)-one], in assay [1] (setting [3]), the EC50 lay in the range of 500 to 5000 nM and the maximal fold induction was in the range of 1.2 to 1.5. In assay [2] (setting [4]), the EC50 is 500 to 5000 nM. Also, the “Enzymatic Emax” value in assay [2] is on record as “C (2≥C)”.

Consider `Cn1ncc(Cl)c1CC1c2cc(N3CCOCC3)ccc2C(=O)N1Cc1ccc2[nH]nnc2c1` (stereo not shown) [Compound 324, 2-((1H-benzo[d][1,2,3]triazol-5-yl)methyl)-3-((4-chloro-1-methyl-1H-pyrazol-5-yl)methyl)-5-morpholinoisoindolin-1-one], for which, in assay [1] (setting [5]), the EC50 is less than 500 nM and the maximal fold induction is greater than 1.5. In addition, in assay [2] (setting [6]), the EC50 is less than 500 nM. The “Enzymatic Emax” value in assay [2] was “A (A>3)”.

For `COc1ccc(CN2C(=O)c3ccccc3C2Cc2c(C#N)ccnc2C#N)cn1` (stereo not shown) [Compound 598, 3-((2-((6-methoxypyridin-3-yl)methyl)-3-oxoisoindolin-1-yl)methyl)pyridine-2,4-dicarbonitrile], in assay [1] (setting [5]), the EC50 lay in the range of 500 to 5000 nM and the maximal fold induction is greater than 1.5. Moreover, the EC50 in assay [2] (setting [6]) was in the range of 500 to 5000 nM. Moreover, the “Enzymatic Emax” value in assay [2] is “B (3≥B>2)”.

As for `C/C(=C\CN1C(=O)c2ccccc2C1Cc1ncccc1Br)c1c[nH]nn1` (stereo not shown) [Compound 425, (E)-2-(3-(1H-1,2,3-triazol-4-yl)but-2-en-1-yl)-3-((3-bromopyridin-2-yl)methyl) isoindolin-1-one], in assay [1] (setting [5]), the EC50 is less than 500 nM and the maximal fold induction was greater than 1.5. The EC50 in assay [2] (setting [6]) is less than 500 nM. The “Enzymatic Emax” value in assay [2] is “B (3≥B>2)”.

For the compound `Cc1ccnc(C#N)c1CC1c2ccccc2C(=O)N1C/C=C/c1c[nH]nn1` (stereo not shown) [Compound 409, (E)-3-((2-(3-(1H-1,2,3-triazol-4-yl)allyl)-3-oxoisoindolin-1-yl)methyl)-4-methylpicolinonitrile], in assay [1] (setting [5]), the EC50 was less than 500 nM and the maximal fold induction is greater than 1.5. Besides, in assay [2] (setting [6]), the EC50 was less than 500 nM. Besides, in assay [2], the “Enzymatic Emax” value is listed as “B (3≥B>2)”.

Consider `O=C1c2ccc(N3CCOCC3)cc2C(Cc2ccccc2)N1Cc1ccc2[nH]c(=O)oc2c1` (stereo not shown) [Compound 97, 6-((3-benzyl-5-morpholino-1-oxoisoindolin-2-yl)methyl)benzo[d]oxazol-2(3H)-one], for which, in assay [1] (setting [3]), the EC50 lay in the range of 500 to 5000 nM and the maximal fold induction was greater than 1.5. In assay [2] (setting [4]), the EC50 was 500 to 5000 nM. Besides, the “Enzymatic Emax” value in assay [2] is reported as “A (A>3)”.

Consider `Cn1ncc(Cl)c1CC1c2ccccc2C(C)(C)N1Cc1cnc(O)s1` (stereo not shown) [Compound 614, 5-((3-((4-chloro-1-methyl-1H-pyrazol-5-yl)methyl)-1,1-dimethylisoindolin-2-yl)methyl)thiazol-2-ol], for which, in assay [1] (setting [5]), the EC50 was 5000 to 50000 nM and the maximal fold induction is no more than 1.2. For the same compound, the EC50 in assay [2] (setting [6]) was 500 to 5000 nM. Also, the “Enzymatic Emax” value in assay [2] is reported as “B (3≥B>2)”.

With `Cn1ncc(Cl)c1CC1c2cc(Br)ccc2C(=O)N1Cc1ccc2[nH]c(=O)oc2c1` (stereo not shown) [Compound 431, 6-((5-bromo-3-((4-chloro-1-methyl-1H-pyrazol-5-yl)methyl)-1-oxoisoindolin-2-yl)methyl)benzo[d]oxazol-2(3H)-one], in assay [1] (setting [5]), the EC50 was less than 500 nM and the maximal fold induction was greater than 1.5. Also, in assay [2] (setting [6]), the EC50 was less than 500 nM. Further, in assay [2], the “Enzymatic Emax” value was “A (A>3)”.

For the compound `Cc1noc(Cl)c1CC1c2ccccc2C(=O)N1Cc1ccc2[nH]nnc2c1` (stereo not shown) [Compound 357, 2-((1H-benzo[d][1,2,3]triazol-5-yl)methyl)-3-((5-chloro-3-methylisoxazol-4-yl)methyl)isoindolin-1-one], in assay [1] (setting [5]), the EC50 was less than 500 nM and the maximal fold induction was greater than 1.5. Besides, the EC50 in assay [2] (setting [6]) is 500 to 5000 nM. In addition, the “Enzymatic Emax” value in assay [2] was “A (A>3)”.

Turning to `Cc1cccnc1C[C@H]1c2ccccc2C(=O)N1Cc1ccc2[nH]c(=O)oc2c1` [Compound 178, (S)-6-((1-((3-methylpyridin-2-yl)methyl)-3-oxoisoindolin-2-yl)methyl)benzo[d]oxazol-2(3H)-one], the EC50 in assay [1] (setting [3]) and in assay [2] (setting [4]) was less than 500 nM throughout. Also, the maximal fold induction in assay [1] (setting [3]) is greater than 1.5. Further, the “Enzymatic Emax” value in assay [2] is recorded as “A (A>3)”.

Consider `COc1ncc(CN2C(=O)c3ccccc3C2Cc2c(Cl)cnn2C)o1` (stereo not shown) [Compound 603, 3-((4-chloro-1-methyl-1H-pyrazol-5-yl)methyl)-2-((2-methoxyoxazol-5-yl)methyl)isoindolin-1-one], for which, in assay [1] (setting [5]), the EC50 was in the range of 500 to 5000 nM and the maximal fold induction was in the range of 1.2 to 1.5. In assay [2] (setting [6]), the EC50 is no less than 5000 nM. Further, the “Enzymatic Emax” value in assay [2] was “C (2≥C)”.

For `Cn1cc(Cl)c(CC2c3ccccc3C(=O)N2Cc2ccc3[nH]c(=O)oc3c2)n1` (stereo not shown) [Compound 232, 6-((1-((4-chloro-1-methyl-1H-pyrazol-3-yl)methyl)-3-oxoisoindolin-2-yl)methyl)benzo[d]oxazol-2(3H)-one], in assay [1] (setting [3]), the EC50 was less than 500 nM and the maximal fold induction is greater than 1.5. In assay [2] (setting [4]), the EC50 is less than 500 nM. Besides, the “Enzymatic Emax” value in assay [2] is reported as “A (A>3)”.

For the compound `Cn1ncc(Cl)c1CC1c2cc(CC3COC3)ccc2C(=O)N1Cc1ccc2[nH]nnc2c1` (stereo not shown) [Compound 394, 2-((1H-benzo[d][1,2,3]triazol-5-yl)methyl)-3-((4-chloro-1-methyl-1H-pyrazol-5-yl)methyl)-5-(oxetan-3-ylmethyl)isoindolin-1-one], the EC50 was 500 to 5000 nM in assay [1] (setting [5]) and less than 500 nM in assay [2] (setting [6]). The maximal fold induction in assay [1] (setting [5]) is greater than 1.5. Besides, the “Enzymatic Emax” value in assay [2] is listed as “B (3≥B>2)”.

As for `COc1ccc(CN2C(=O)c3ccc(OC(F)F)cc3C2Cc2c(Cl)cnn2C)cn1` (stereo not shown) [Compound 619, 3-((4-chloro-1-methyl-1H-pyrazol-5-yl)methyl)-5-(difluoromethoxy)-2-((6-methoxypyridin-3-yl)methyl)isoindolin-1-one], in assay [1] (setting [5]), the EC50 was 500 to 5000 nM and the maximal fold induction was greater than 1.5. In addition, the EC50 in assay [2] (setting [6]) was no less than 5000 nM. The “Enzymatic Emax” value in assay [2] is recorded as “A (A>3)”.

`O=C1c2ccccc2C(Cc2ncccc2Br)N1Cc1ccc2[nH]c(=O)oc2n1` (stereo not shown) [Compound 241, 5-((1-((3-bromopyridin-2-yl)methyl)-3-oxoisoindolin-2-yl)methyl)oxazolo[5,4-b]pyridin-2(1H)-one]: in assay [1] (setting [3]), the EC50 lay in the range of 500 to 5000 nM and the maximal fold induction fell in the range of 1.2 to 1.5. Also, the EC50 in assay [2] (setting [4]) lay in the range of 500 to 5000 nM. For the same compound, in assay [2], the “Enzymatic Emax” value is “A (A>3)”.

For `COc1ccc(CN2C(=O)c3c(F)cc(Cl)cc3C2Cc2c(C)ccnc2C#N)cn1` (stereo not shown) [Compound 596, 3-((6-chloro-4-fluoro-2-((6-methoxypyridin-3-yl)methyl)-3-oxoisoindolin-1-yl)methyl)-4-methylpicolinonitrile], in assay [1] (setting [5]), the EC50 lay in the range of 500 to 5000 nM and the maximal fold induction was greater than 1.5. Also, the EC50 in assay [2] (setting [6]) was 500 to 5000 nM. Moreover, the “Enzymatic Emax” value in assay [2] is recorded as “B (3≥B>2)”.

As for `O=C1c2ccccc2C(Cc2ncccc2Br)N1CC1CCc2[nH]c(=O)oc2C1` (stereo not shown) [Compound 400, 6-((1-((3-bromopyridin-2-yl)methyl)-3-oxoisoindolin-2-yl)methyl)-4,5,6,7-tetrahydrobenzo[d]oxazol-2(3H)-one], in assay [1] (setting [5]), the EC50 was in the range of 500 to 5000 nM and the maximal fold induction was greater than 1.5. Besides, the EC50 in assay [2] (setting [6]) was 500 to 5000 nM. In addition, the “Enzymatic Emax” value in assay [2] was “B (3≥B>2)”.

Take `O=C1c2ccccc2C(Cc2nn(C3COC3)cc2Cl)N1Cc1ccc2[nH]nnc2c1` (stereo not shown) [Compound 318, 2-((1H-benzo[d][1,2,3]triazol-5-yl)methyl)-3-((4-chloro-1-(oxetan-3-yl)-1H-pyrazol-3-yl)methyl)isoindolin-1-one]: the EC50 in assay [1] (setting [3]) and in assay [2] (setting [4]) was less than 500 nM throughout. Further, in assay [1] (setting [3]), the maximal fold induction is greater than 1.5. For the same compound, in assay [2], the “Enzymatic Emax” value is given as “A (A>3)”.

Consider `O=C1c2ccc(Nc3ccccc3)cc2C(=O)N1Cc1ccc(O)cc1` [Compound 15, 2-(4-hydroxybenzyl)-5-(phenylamino)isoindoline-1,3-dione], for which, in assay [1] (setting [3]), the EC50 was less than 500 nM and the maximal fold induction is no more than 1.2. In assay [2] (setting [4]), the 50% effective concentration (EC50) was in the range of 500 to 5000 nM. The “Enzymatic Emax” value in assay [2] was “B (3≥B>2)”.

On to `Cn1nc(C#N)c(Cl)c1CC1c2ccccc2C(=O)N1CC1CC2(CNC(=O)O2)C1` (stereo not shown) [Compound 495, 4-chloro-1-methyl-5-((3-oxo-2-((6-oxo-5-oxa-7-azaspiro[3.4]octan-2-yl)methyl)isoindolin-1-yl)methyl)-1H-pyrazole-3-carbonitrile], for which, in assay [1] (setting [5]), the EC50 is less than 500 nM and the maximal fold induction was greater than 1.5. Besides, the EC50 in assay [2] (setting [6]) was 500 to 5000 nM. For the same compound, in assay [2], the “Enzymatic Emax” value is reported as “B (3≥B>2)”.

The record behind these values is patent US20260078130A1, “NAMPT MODULATORS, PREPARATIONS, AND USES THEREOF” (SIRONAX LTD., priority 2022, published 2026).
